Laboratory results reported in US7579477B2, “Thiazole-based nitric oxide donors having alkyl substituent(s) and uses thereof” (priority 2004, dated 2009).
Entries after “also recorded” stand apart in the source; their conditions may differ.

Key:
[1] = tested on: c-GMP in aortic rat tissue; experiment: Cyclic-GMP measurement in aortic rat tissue (radioimmunoassay); type: cell-based; details: for levels of cGMP as compared with GTN: isolated rat aorta, FIGS. 25, 27, 33
Method: GTN (10^−6 M) was added to the chamber and, 1 minute after exposure to the drug, rings (usually 3-5) were taken, wrapped with aluminum foil and immediately frozen in liquid nitrogen for storage. Control sample group was treated with the vehicle solution only. At the time of analysis, rings were thawed, blotted over a dry gauzed and weighted. A known weight of tissue was homogenized in 2 ml ice-cold modified Hank's balanced salt solution containing (in gram/liter) NaCl 8; KCl 0.4; glucose 1; KH2PO4 0.06; Na2HPO4 0.047; Phenol red 0.017 and further containing 25 mM EDTA (disodium salt). The homogenate was centrifuged at 4000 g (force units) for 10 minutes at 2-4° C. and the supernatant was thereafter transferred into fresh pre-cooled test tube containing 1 ml of acetonitrile. The tubes were vortex mixed for a few seconds and subsequently centrifuged at 4000 g for 5 minutes at 2-4° C., to remove the precipitated protein. Each supematant was transferred into a clean test tube and evaporated to dryness under a stream of nitrogen at 55° C. The dry residue was reconstituted with 10 volumes of Tris-EDTA buffer pH 7.5 (0.05 M Tris containing 4 mM EDTA). Aliquots of 100 μl of the reconstituted solution in duplicate were used for c-GMP measurements using Amersham RIA kit, as is described in Haj-Yehia & Benet [Pharmacology, 1995, 273, 1, pp. 94-100]. Standard curves were plotted with six concentrations (0, 0.5, 1, 2, 4 and 8 pmoles of c-GMP per tube).

[2] = tested on: isolated rat aorta; experiment: In vitro induction of tolerance to NO releasing compounds (vasorelaxation after pre-exposure); type: cell-based; details: rat aorta pre-treated with epinephrine and then with the compound (0.44 mM) versus control
Method: Aortic rings were prepared as described hereinabove, and were exposed to 0.44 mM GTN (vehicle was water:ethanol:propyleneglycol at proportional ratio of 1:1:1) for 1 hour before CCRC construction, to thereby induce tolerance to nitroglycerine. At the end of the tolerance induction period, rings were thrice washed with the path buffer (Krebs-bicrbonate) every 15 minutes for the following hour and then CCRC for vasorelaxation on GTN-induced tolerance rings were constructed for GTN (pretreated versus untreated rings, FIG. 15), in order to verify the ability to induce and measure GTN tolerance induction in vitro
Attempted induction of tolerance to the NO-donating compounds of the present invention was performed under the same conditions as for GTN. Thus, in an exemplary experiment, rings were exposed to 0.44 mM solution of Pet-3 in the attempt to induce tolerance for Pet-3. CCRC were then measured for the vasorelaxing effect of Pet-3 on a group of rings which were pre-exposed to Pet-3 as to induce tolerance to Pet-3, and for an untreated control group. The above protocol was repeated with Pet-2, Pet-7, Pet-8, Pet-12, Pet-24, Pet-43, Pet-149 and Pet-152.

[3] = tested on: cGMP in isolated aorta of rats pre-treated in vivo; experiment: Induction of in vivo nitrate tolerance (cGMP in aorta after 16 hour infusion); design: species or system rat; details: for tolerance induction in vivo: cGMP accumulation in aorta of rats pre-treated in vivo, FIGS. 24, 26
Method: For c-GMP levels and tolerance development, the rat's thoracic aorta was isolated after exposure to the tested compound in vivo, and measured as described above in the in vitro assays.
Male Sprague Dawley rats (220 to 250 grams) were housed under constant temperature and humidity conditions. Light was maintained at a 12/12 light dark cycle. Except for 12 hours before the experiment, when food fasting was initiated, all rats had free access to standard rat pellet diet and tap water. The animals were anesthetized by intraperitoneal injection of ketamine and xylazine combination (50 and 10 milligram per kilogram, respectively). […] The catheters were filled with normal saline solution containing 1000 IU/ml of heparin and plugged with a metal pin. Catheters were externalized to the back of the neck region and secured by a polyester felt disk.
After implantation, the rats were individually housed until they regained their preoperative weight and appeared healthy (3 to 4 days post-operation). At this time point (day 0), an osmotic mini-pump (Alza Corp., Palo Alto, Calif.) delivering constant volume (10 μl/hour) of vehicle or drug was connected to one of the intravenous catheters.
For inducing tolerance to the tested NO-donor according to the present invention, the animals received 200 μg/hour of the tested compound for 16 hours (short-term-induced tolerance). A similar number of animals were processed by the same surgical procedure and received the vehicle alone (10 μl/hour of a solution consisting of 30% ethanol and 30% propylene glycol in sterile distilled water for injection).
At the end of the infusion periods used for the development of tolerance (16 hour), the rats were anesthetized as described above, the two catheters were externalized and the delivering catheters were disconnected from the mini-pump. The abdomen was opened by midline incision and the thoracic aorta were isolated, washed and cleaned from the surrounding tissues. […]

[4] = tested on: mean arterial blood pressure of rats; experiment: Hypotensive effects: mean arterial pressure after iv bolus; type: in vivo, rat; details: anesthetized rats, phenylephrine, iv bolus doses
Method: Mean arterial pressure (MAP) was monitored and determined during bolus infusion of Pet-2, Pet-3, Pet-7, Pet-8, Pet-12 and Pet-13. Briefly, polyethylene catheters (PE50) were inserted into the carotid artery and into the jugular vein of anesthetized hypertensive Sprague-Dawley male rats (200-300 grams). A blood pressure recorder was placed within the carotid artery. Phenylephrine (0.1 mg) was then injected and the mean arterial blood pressure (MABP) was monitored continuously until a stable baseline was reached. The hypotensive effects of intravenous (iv) bolus doses (0.1 mg of each tested compound) administered intravenously at the jugular vein in minimal volume of vehicle (0.2 ml per dose) were evaluated. Five minutes were allowed between each dose, during which the maximal decrease in MAP was recorded and a dose-response graph comparing the hypotensive effect of the compounds was constructed.

[5] = tested on: isolated rat aorta; experiment: In vitro vasorelaxation of rat aortic rings contracted with epinephrine; type: cell-based; details: isolated rat aorta pre-treated in vitro with 1 μM epinephrine; figure legends
Text: Male Sprague Dawley rats were anaesthetized using intraperitoneal injection of ketamine and xylazine (50 and 10 milligram per kilogram, respectively) and the thoracic aorta, the large upper portion of the descending aorta, starting at the caudal border of the chest bone, was removed thereafter, while carefully removing the paraadventetial tissue surrounding the vessel. Aortae were cut into rings of 4-5 millimeters and mounted onto the tissue path. The path buffer (Krebs-bicrbonate) was constantly gassed with carbogen and maintained at 37° C. The rings were preloaded under 2 g tension and equilibrated for 90 minutes, while refreshing the buffer every 15 minutes. After stabilization, the rings were contracted with epinephrine (1 μM). Cumulative Concentration-Response Curves (CCRC) were measured for the vasorelaxing effect induced by adding various concentrations, ranging from 10^−10 M to 10^−5 M of Pet-2, Pet-3, Pet-7, Pet-8, Pet-12, Pet-24, Pet-43, Pet-59, Pet-147, Pet-152 and Pet-154, and glyceryltrinitrate (GTN), according to the procedure described in Feelich et al., Molecular Pharmacology, 56:243-253 (1999). The vehicle, which was used for this experiment was water:ethanol:propyleneglycol at proportional ratio of 1:1:1.

[6] = tested on: isolated rat aorta; experiment: Cross-tolerance study GTN / Pet-12 on aortic rings; type: cell-based
Method: Cross-tolerance studies were conducted using the same technique described above for measuring vasorelaxation of aortic rings from rats. Two groups of aortic rings samples were pre-treated with GTN, then one group was measured for vasorelaxation by GTN and the second group for vasorelaxation by Pet-12, an exemplary NO-donor according to the present invention. For the opposite cross-tolerance studies, two groups of aortic rings samples were pre-treated with Pet-12, then one group was measured for vasorelaxation by GTN and the second group for vasorelaxation by Pet-12.

| Compound | tolerance induction in vitro [2] | hypotensive effect on MAP following successive administrations [4] | levels of cGMP as compared with GTN [1] | vasorelaxation effect as compared with glyceryltrinitrate [5] | further results |
| --- | --- | --- | --- | --- | --- |
| O=[N+]([O-])OCC(CO[N+](=O)[O-])O[N+](=O)[O-] [GTN, glyceryl trinitrate, reference compound] | tolerance induced | attenuation | – | – | c-GMP level following a repeated treatment ([1]; rat aorta): significantly reduced; level of cGMP following a repeated treatment in vivo ([3]; aorta of rats infused in vivo, FIG. 24): decreased; tolerance induction in vivo [3]: tolerance inducing effect |
| Cc1nc(NC(=O)[C@@H](C)c2ccc(CC(C)C)cc2)sc1CCO[N+](=O)[O-] (stereo in doubt) [Pet-152, 2-(4-Isobutyl-phenyl)-N-[4-methyl-5-(2-nitrooxy-ethyl)-thiazol-2-yl]-propionamide] | – | – | increased levels of cGMP | superior | – |
| CCNc1nc(C)c(CCO[N+](=O)[O-])s1 [Pet-147, Ethyl-[4-methyl-5-(2-nitrooxy-ethyl)-thiazol-2-yl]-amine] | – | – | increased levels of cGMP | – | – |
| Cc1nc(-c2ccccc2)sc1CCO[N+](=O)[O-] [Pet-8, 4-Methyl-5-(2-nitrooxy-ethyl)-2-phenyl-thiazole] | – | consistent and reproducible | increased levels of cGMP | superior | – |
| Cc1nc(Nc2nc(C)c(CCO[N+](=O)[O-])s2)sc1CCO[N+](=O)[O-] [Pet-43, Bis-[4-methyl-5-(2-nitrooxy-ethyl)-thiazol-2-yl]-amine] | absence of tolerance induction | – | – | superior | – |
| Cc1nc(N)sc1CCO[N+](=O)[O-] [Pet-10, 4-methyl-5-(2-nitrooxy-ethyl)-thiazole-2-ylamine] | – | – | increased levels of cGMP | – | – |
| Cc1nc(Nc2cccc3ccccc23)sc1CCO[N+](=O)[O-] [Pet-149, [4-Methyl-5-(2-nitrooxy-ethyl)-thiazol-2-yl]-naphthalen-1-yl-amine] | absence of tolerance induction | – | increased levels of cGMP | superior | – |
| Cc1nc(NC(=O)c2cccnc2)sc1CCO[N+](=O)[O-] [Pet-154, N-[4-methyl-5-(2-nitrooxy-ethyl)-thiazol-2-yl]-nicotinamide] | – | – | increased levels of cGMP | – | – |
| Cc1nc(C)c(CCO[N+](=O)[O-])s1 [Pet-3, 2,4-Dimethyl-5-(2-nitrooxy-ethyl)-thiazole] | absence of tolerance induction | consistent and reproducible | increased levels of cGMP | superior | – |
| Cc1nc(-c2ccc(C(F)(F)F)cc2)sc1CCO[N+](=O)[O-] [Pet-59, 4-Methyl-5-(2-nitrooxy-ethyl)-2-(4-trifluoromethyl-phenyl)-thiazole] | – | – | increased levels of cGMP | superior | – |
| CNc1cncc(-c2nc(C)c(CCO[N+](=O)[O-])s2)n1 [Pet-24, Methyl-{6-[4-methyl-5-(2-nitrooxy-ethyl)-thiazol-2-yl]-pyrazin-2-yl}-amine] | absence of tolerance induction | – | increased levels of cGMP | – | – |
| C=CCNc1nc(C)c(CCO[N+](=O)[O-])s1 [Pet-155, allyl-[4-methyl-5-(2-nitrooxy-ethyl)-thiazol-2-yl]-amine] | – | – | increased levels of cGMP | superior | – |
| Cc1nc(N(C)C)sc1CCO[N+](=O)[O-] [Pet-7, Dimethyl-[4-methyl-5-(2-nitrooxy-ethyl)-thiazol-2-yl]-amine] | absence of tolerance induction | consistent and reproducible | increased levels of cGMP | – | – |
| Cc1nc(-c2cccnc2)sc1CCO[N+](=O)[O-] [Pet-12, 3-[4-Methyl-5-(2-nitrooxy-ethyl)-thiazole-2-yl]-pyridine] | absence of tolerance induction | consistent and reproducible | – | – | effect of induced tolerance to GTN on vasorelaxation capacity ([6]; rings pre-treated with GTN): no effect; tolerance evoked by pre-treatment with Pet-12 ([6]; rings pre-treated with Pet-12, vasorelaxation by GTN or Pet-12): does not evoke tolerance to itself not to GTN; tolerance induction in vivo [3]: absence of tolerance induction; also recorded: lack of tolerance induction |
| Cc1nc(CCCCc2nc(C)c(CCO[N+](=O)[O-])s2)sc1CCO[N+](=O)[O-] [Pet-13] | – | consistent and reproducible | – | – | – |
